In BindingDB's records for patent US20240199605 (Janssen Pharmaceutica, 2024):

Molecular target: Mitogen-activated protein kinase kinase kinase 14 (Homo sapiens, UniProt Q99558)
Experiment: Inhibition of auto-phosphorylation of recombinant human NF-kappaB-inducing kinase (NIK/MAP3K14) activity (AlphaScreen)
Method: All compounds tested were dissolved in dimethyl sulfoxide (DMSO) and further dilutions were made in assay buffer. The final DMSO concentration was 0.7% (v/v) in assays. […] The assays were carried out in 384 well Proxiplates (Perkin Elmer).

Sequence of Mitogen-activated protein kinase kinase kinase 14 (Q99558 whole entry): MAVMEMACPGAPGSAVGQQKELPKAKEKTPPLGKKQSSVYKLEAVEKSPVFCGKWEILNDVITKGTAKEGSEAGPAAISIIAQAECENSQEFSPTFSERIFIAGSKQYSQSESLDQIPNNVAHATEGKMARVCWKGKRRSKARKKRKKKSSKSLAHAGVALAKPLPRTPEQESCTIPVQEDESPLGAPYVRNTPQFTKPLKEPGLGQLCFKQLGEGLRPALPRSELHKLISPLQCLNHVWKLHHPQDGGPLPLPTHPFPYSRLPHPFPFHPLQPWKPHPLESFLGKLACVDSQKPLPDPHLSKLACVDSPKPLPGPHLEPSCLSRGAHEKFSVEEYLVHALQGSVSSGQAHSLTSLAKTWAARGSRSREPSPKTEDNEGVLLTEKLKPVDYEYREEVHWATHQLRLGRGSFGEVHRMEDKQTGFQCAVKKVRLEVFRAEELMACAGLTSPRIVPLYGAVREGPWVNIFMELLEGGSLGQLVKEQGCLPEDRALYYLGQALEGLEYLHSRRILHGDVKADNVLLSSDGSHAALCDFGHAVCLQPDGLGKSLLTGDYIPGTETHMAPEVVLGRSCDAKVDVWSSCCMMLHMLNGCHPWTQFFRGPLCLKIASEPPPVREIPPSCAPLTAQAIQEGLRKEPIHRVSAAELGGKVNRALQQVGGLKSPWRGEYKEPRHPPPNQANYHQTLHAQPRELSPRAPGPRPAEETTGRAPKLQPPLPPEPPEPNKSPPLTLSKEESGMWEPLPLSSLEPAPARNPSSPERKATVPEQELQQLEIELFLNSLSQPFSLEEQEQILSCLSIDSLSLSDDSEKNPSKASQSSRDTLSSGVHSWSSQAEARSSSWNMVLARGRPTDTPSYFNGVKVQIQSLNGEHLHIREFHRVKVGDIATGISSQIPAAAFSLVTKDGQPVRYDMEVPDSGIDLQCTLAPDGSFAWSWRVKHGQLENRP

IC50: 0.8 nM
Structure (SMILES): Cc1cc(C#C[C@]2(O)CCN(C)C2=O)cc(-c2nc3c(N)ncnc3s2)c1 [US20240199605, Example 153]
